# Reference: patent US20250179531A1, “COMPOSITIONS AND METHODS FOR HOMOLOGY-DIRECTED REPAIR GENE MODIFICATION” (VOR BIOPHARMA INC., priority 2022, published 2025)
# Experiments:
# Assay type in all cases: cell-based, human
# [1] = tested on: GBA gene; assay: Editing of the GBA gene in CD34+ cells, ICE analysis of sequencing data
# Description: CD34+ cells were electroporated with RNP comprising the designed sgRNAs and with the designed ssODNs. Cells were screened by ICE analysis of sequencing data.
# To optimize HDR-mediated editing of the GBA gene loci associated with Gaucher disease, ssODN candidates were screened for their ability to promote high editing efficiencies. Four ssODNs (ssODN1-4) comprising a sequence with a modification to generate the N409S mutation in exon 9 of the GBA gene and two ssODNs (ssODN5 and ssODN6) comprising a sequence with a modification to generate the L483P mutation in exon 10 of the GBA gene were screened. CD34+ cells were electroporated with different combinations of RNPs and ssODNs that corresponded to their respective target sequences, as described above, grown for 2-3 days, and then analyzed for cell viability and by sequencing (FIG. 10A).
# [2] = tested on: CCR5 gene; assay: ICE analysis of sequencing data, Pvu1 site insertion into CCR5 in CD34+ cells; conditions: for HDR-mediated editing efficiency (promoting HDR): CD34+ cells in SCGM with hSCF, FLT3-L, TPO, added to RNP and ssODN, FIG. 4A; for efficiency of HDR in CD34+ cells: SR1 and UM171, in the presence or in the absence of IL-6
# Procedure: The presence of the Pvu1 restriction site in the CCR5 locus was also detected by sequencing. Sequencing data was analyzed via inference of CRISPR/Cas9 (ICE) software to quantify the percent of insertion of the 6 nucleotide Pvu1 site.
# To determine conditions that would enhance HDR-mediated editing efficiency, the role of media conditions was assessed. CD34+ cells were cultured in stromal cell growth media (SCGM) supplemented with human stem cell factor (hSCF), Fms-like tyrosine kinase 3 Ligand (FLT3-L), and thrombopoietin (TPO) to promote cell differentiation and proliferation. Using ICE analysis of sequencing data to detect Pvu1 restriction site insertion into the CCR5 gene of CD34+ cells, cells were electroporated with DNA repair modulators to skew repair pathway utilization toward HDR following Cas9 cleavage in combination with cell expansion compounds Interleukin-6 (IL6), StemRegenin 1 (SR1), and UM171 in addition to RNP and ssODN. DNA repair modulators investigated included SCR7 (a ligase IV inhibitor), NU7441 (a DNA-PK inhibitor), Rucaparib (a PARP inhibitor), and RS-1 (an HDR enhancer).
# [3] = tested on: RAB11a locus; assay: Flow cytometry of EGFP reporter from capped dsODN integrated at RAB11a in T cells; conditions: 3 μg Cas9, 3 μg RAB11a sgRNA, 1 μg capped dsODN; NU7441 1 μM, SCR7 5 μM, and/or SR1 5 μM in media 24 hours post-electroporation
# Description: Two respective capped, dsODNs were designed comprising an EGFP reporter and homology arms to direct integration at either the AAVS1 or RAB11a loci in T cells (FIG. 16A-16B). T cells were electroporated with dsODN and Cas9 RNP as described herein. Flow cytometry analyses were used to confirm EGFP expression in electroporated T cells. Approximately 20% of cells electroporated with capped, AAVS1 dsODN and 38% of cells electroporated with capped, RAB11a dsODN were GFP positive (FIG. 17A).
# [4] = tested on: T cells; assay: T cell viability after electroporation and addition of NHEJ modulators; conditions: NU7441 1 μM, SCR7 5 μM, and/or SR1 5 μM in media 24 hours post-electroporation
compound,measurement,setting,value
"SG4: Cas9 sgRNA to human GBA, position 1226; targeting domain CUAGAACCUCCUGUACCAUG (SEQ ID NO: 12) (as printed in the source, key not given here)",editing efficiency of exon 9 of the GBA gene,[1],high editing efficiency
"SG1: Cas9 sgRNA to human GBA, position 1226; targeting domain ACAUGGUACAGGAGGUUCUA (SEQ ID NO: 3) (as printed in the source, key not given here)",editing efficiency of exon 9 of the GBA gene,[1],high editing efficiency
O=c1cc(N2CCOCC2)oc2c(-c3cccc4c3sc3ccccc34)cccc12 [NU7441],HDR-mediated editing efficiency (promoting HDR),[2],no significant advantage
same,increase in GFP expression,[3],approximately 10%
same,T cell viability,[4],reduced
"SG6: Cas9 sgRNA to human GBA, position 1448; targeting domain UGCCAGUCAGAAGAACGACC (SEQ ID NO: 18) (as printed in the source, key not given here)",editing efficiency of exon 10 of the GBA gene,[1],high editing efficiency
O=C(Nc1ccc(Br)cc1)c1ccc(Br)c(S(=O)(=O)NCc2ccccc2)c1 [RS-1],HDR-mediated editing efficiency (promoting HDR),[2],no significant advantage
Cn1nnc(-c2ccc3c(c2)[nH]c2nc(Cc4ccccc4)nc(NC4CCC(N)CC4)c23)n1 (stereo not drawn) [UM171],HDR-mediated editing efficiency (promoting HDR),[2],improved
same,efficiency of HDR in CD34+ cells,[2],significantly increase
"CC(C)n1cnc2c(NCCc3ccc(O)cc3)nc(-c3csc4ccccc34)nc21 [SR1, StemRegenin 1]",HDR-mediated editing efficiency (promoting HDR),[2],improved
same,efficiency of HDR in CD34+ cells,[2],significantly increase
same,increase in GFP expression,[3],approximately 10%
same,T cell viability,[4],reduced
O=c1[nH]c(=S)[nH]c(N=Cc2ccccc2)c1N=Cc1ccccc1 [SCR7],HDR-mediated editing efficiency (promoting HDR),[2],no significant advantage
same,increase in GFP expression,[3],approximately 10%
"SG7: Cas9 sgRNA to human GBA, position 1448; targeting domain GCAUCAGUGCCACUGCGUCC (SEQ ID NO: 21) (as printed in the source, key not given here)",editing efficiency of exon 10 of the GBA gene,[1],high editing efficiency
CNCc1ccc(-c2[nH]c3cc(F)cc4c3c2CCNC4=O)cc1 [Rucaparib],HDR-mediated editing efficiency (promoting HDR),[2],no significant advantage
Interleukin-6 [IL6],HDR-mediated editing efficiency (promoting HDR),[2],improved
same,overall editing efficiency,"[2]; presence or absence of IL6 in CD34+ cell media, FIG. 4B",did not significantly affect
same,HDR,"[2]; presence or absence of IL6 in CD34+ cell media, FIG. 4C",did not significantly affect
"SG2: Cas9 sgRNA to human GBA, position 1226; targeting domain CACAUGGUACAGGAGGUUCU (SEQ ID NO: 6) (as printed in the source, key not given here)",editing efficiency of exon 9 of the GBA gene,[1],high editing efficiency
